Laboratory results published in ChEMBL document CHEMBL4507317, “Data for DCP probe BAY-899” (2021).

What was measured:
[1] = system: Tyrosine-protein kinase ABL1 (Homo sapiens), P00519 [F317L]; conditions: Compound concentration 1000.0 nM
[2] = system: Tyrosine-protein kinase ABL1 (Homo sapiens), P00519 [Q252H]; conditions: Compound concentration 1000.0 nM
[3] = molecular target: Activin receptor type-1 (Homo sapiens) (UniProt Q04771); conditions: Compound concentration 1000.0 nM
[4] = molecular target: Atypical kinase COQ8B, mitochondrial (Homo sapiens) (UniProt Q96D53); conditions: Compound concentration 1000.0 nM
[5] = molecular target: 5'-AMP-activated protein kinase catalytic subunit alpha-1 (Homo sapiens) (UniProt Q13131); conditions: Compound concentration 1000.0 nM
[6] = molecular target: 5'-AMP-activated protein kinase catalytic subunit alpha-2 (Homo sapiens) (UniProt P54646); conditions: Compound concentration 1000.0 nM
[7] = molecular target: Ankyrin repeat and protein kinase domain-containing protein 1 (Homo sapiens) (UniProt Q8NFD2); conditions: Compound concentration 1000.0 nM
[8] = molecular target: Mitotic checkpoint serine/threonine-protein kinase BUB1 (Homo sapiens) (UniProt O43683); conditions: Compound concentration 1000.0 nM
[9] = molecular target: Calcium/calmodulin-dependent protein kinase type 1B (Homo sapiens) (UniProt Q6P2M8); conditions: Compound concentration 1000.0 nM
Calcium/calmodulin-dependent protein kinase type 1B (Homo sapiens), sequence (Q6P2M8 whole entry): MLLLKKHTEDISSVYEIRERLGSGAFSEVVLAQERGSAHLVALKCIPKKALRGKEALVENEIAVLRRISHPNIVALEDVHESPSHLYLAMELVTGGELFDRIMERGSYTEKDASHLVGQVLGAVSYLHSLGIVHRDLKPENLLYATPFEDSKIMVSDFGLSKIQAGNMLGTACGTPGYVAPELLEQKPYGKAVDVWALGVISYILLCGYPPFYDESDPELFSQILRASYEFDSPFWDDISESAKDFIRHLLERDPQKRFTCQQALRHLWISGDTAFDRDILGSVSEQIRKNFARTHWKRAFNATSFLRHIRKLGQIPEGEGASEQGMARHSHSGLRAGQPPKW

[10] = molecular target: Calcium/calmodulin-dependent protein kinase type 1D (Homo sapiens) (UniProt Q8IU85); conditions: Compound concentration 1000.0 nM
[11] = molecular target: Calcium/calmodulin-dependent protein kinase type IV (Homo sapiens) (UniProt Q16566); conditions: Compound concentration 1000.0 nM
[12] = molecular target: Cyclin-dependent kinase 4 (Homo sapiens) (UniProt P11802); conditions: Compound concentration 1000.0 nM
[13] = molecular target: Cyclin-dependent kinase 8 (Homo sapiens) (UniProt P49336); conditions: Compound concentration 1000.0 nM
[14] = molecular target: Casein kinase I isoform epsilon (Homo sapiens) (UniProt P49674); conditions: Compound concentration 1000.0 nM
[15] = system: Epidermal growth factor receptor (Homo sapiens), P00533 [L858R,T790M]; conditions: Compound concentration 1000.0 nM
[16] = molecular target: Eukaryotic translation initiation factor 2-alpha kinase 1 (Homo sapiens) (UniProt Q9BQI3); conditions: Compound concentration 1000.0 nM
[17] = molecular target: Hormonally up-regulated neu tumor-associated kinase (Homo sapiens) (UniProt P57058); conditions: Compound concentration 1000.0 nM
[18] = molecular target: Tyrosine-protein kinase ITK/TSK (Homo sapiens) (UniProt Q08881); conditions: Compound concentration 1000.0 nM
[19] = molecular target: Mitogen-activated protein kinase 9 (Homo sapiens) (UniProt P45984); conditions: Compound concentration 1000.0 nM
[20] = molecular target: Serine/threonine-protein kinase 10 (Homo sapiens) (UniProt O94804); conditions: Compound concentration 1000.0 nM
[21] = molecular target: MAP/microtubule affinity-regulating kinase 3 (Homo sapiens) (UniProt P27448); conditions: Compound concentration 1000.0 nM
[22] = molecular target: Dual specificity mitogen-activated protein kinase kinase 2 (Homo sapiens) (UniProt P36507); conditions: Compound concentration 1000.0 nM
[23] = molecular target: Serine/threonine-protein kinase 24 (Homo sapiens) (UniProt Q9Y6E0); conditions: Compound concentration 1000.0 nM
[24] = molecular target: Serine/threonine-protein kinase PAK 1 (Homo sapiens) (UniProt Q13153); conditions: Compound concentration 1000.0 nM
[25] = molecular target: Serine/threonine-protein kinase PAK 2 (Homo sapiens) (UniProt Q13177); conditions: Compound concentration 1000.0 nM
Serine/threonine-protein kinase PAK 2 (Homo sapiens), sequence (Q13177 whole entry): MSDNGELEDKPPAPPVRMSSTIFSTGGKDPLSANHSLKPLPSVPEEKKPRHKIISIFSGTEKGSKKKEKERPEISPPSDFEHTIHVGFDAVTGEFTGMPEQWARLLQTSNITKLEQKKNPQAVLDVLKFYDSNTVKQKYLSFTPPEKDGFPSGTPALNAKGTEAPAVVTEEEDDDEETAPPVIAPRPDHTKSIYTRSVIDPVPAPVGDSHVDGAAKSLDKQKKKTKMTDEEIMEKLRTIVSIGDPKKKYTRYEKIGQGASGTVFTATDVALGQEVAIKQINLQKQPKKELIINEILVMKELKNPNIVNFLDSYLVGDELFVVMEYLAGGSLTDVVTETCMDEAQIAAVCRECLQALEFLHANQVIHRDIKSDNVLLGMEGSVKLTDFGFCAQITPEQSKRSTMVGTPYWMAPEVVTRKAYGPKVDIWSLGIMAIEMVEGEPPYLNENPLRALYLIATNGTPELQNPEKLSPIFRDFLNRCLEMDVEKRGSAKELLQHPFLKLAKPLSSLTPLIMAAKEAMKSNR

[26] = molecular target: Platelet-derived growth factor receptor alpha (Homo sapiens) (UniProt P16234); conditions: Compound concentration 1000.0 nM
Platelet-derived growth factor receptor alpha (Homo sapiens), sequence (P16234 whole entry): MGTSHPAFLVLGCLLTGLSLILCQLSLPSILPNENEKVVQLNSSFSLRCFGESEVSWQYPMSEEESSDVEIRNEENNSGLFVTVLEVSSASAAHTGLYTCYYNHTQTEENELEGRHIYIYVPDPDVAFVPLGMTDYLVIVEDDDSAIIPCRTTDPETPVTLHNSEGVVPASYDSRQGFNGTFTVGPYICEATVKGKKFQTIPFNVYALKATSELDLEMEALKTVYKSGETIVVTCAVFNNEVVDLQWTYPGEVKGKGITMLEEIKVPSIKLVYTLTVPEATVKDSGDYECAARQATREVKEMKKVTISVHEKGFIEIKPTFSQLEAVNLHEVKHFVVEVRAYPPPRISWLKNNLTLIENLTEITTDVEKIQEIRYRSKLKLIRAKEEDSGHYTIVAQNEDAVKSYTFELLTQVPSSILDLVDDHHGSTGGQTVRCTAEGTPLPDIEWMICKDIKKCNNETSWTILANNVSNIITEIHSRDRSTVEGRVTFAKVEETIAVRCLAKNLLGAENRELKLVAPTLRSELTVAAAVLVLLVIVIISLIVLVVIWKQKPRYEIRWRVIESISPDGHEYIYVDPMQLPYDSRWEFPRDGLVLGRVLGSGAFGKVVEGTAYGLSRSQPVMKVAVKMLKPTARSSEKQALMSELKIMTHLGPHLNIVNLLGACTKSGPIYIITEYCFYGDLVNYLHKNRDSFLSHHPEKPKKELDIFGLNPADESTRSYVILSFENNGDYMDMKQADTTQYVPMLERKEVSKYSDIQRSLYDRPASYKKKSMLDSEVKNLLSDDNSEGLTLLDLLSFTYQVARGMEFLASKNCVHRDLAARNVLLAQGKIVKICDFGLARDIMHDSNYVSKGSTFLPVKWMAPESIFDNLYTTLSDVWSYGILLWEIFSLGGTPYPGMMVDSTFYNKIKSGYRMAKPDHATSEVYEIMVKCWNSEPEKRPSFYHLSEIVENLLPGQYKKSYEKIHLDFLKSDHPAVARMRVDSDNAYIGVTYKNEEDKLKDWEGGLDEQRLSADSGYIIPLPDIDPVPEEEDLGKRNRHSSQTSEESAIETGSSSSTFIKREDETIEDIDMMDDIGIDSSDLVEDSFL

[27] = molecular target: Calcium-dependent protein kinase 1 (Plasmodium falciparum) (UniProt P62344); conditions: Compound concentration 1000.0 nM
[28] = molecular target: Phosphatidylinositol 4-phosphate 3-kinase C2 domain-containing subunit beta (Homo sapiens) (UniProt O00750); conditions: Compound concentration 1000.0 nM
[29] = molecular target: Phosphatidylinositol 4,5-bisphosphate 3-kinase catalytic subunit delta isoform (Homo sapiens) (UniProt O00329); conditions: Compound concentration 1000.0 nM
[30] = molecular target: cAMP-dependent protein kinase catalytic subunit alpha (Homo sapiens) (UniProt P17612); conditions: Compound concentration 1000.0 nM
[31] = molecular target: Serine/threonine-protein kinase N2 (Homo sapiens) (UniProt Q16513); conditions: Compound concentration 1000.0 nM
[32] = molecular target: Protein kinase C delta type (Homo sapiens) (UniProt Q05655); conditions: Compound concentration 1000.0 nM
[33] = molecular target: Serine/threonine-protein kinase PRP4 homolog (Homo sapiens) (UniProt Q13523); conditions: Compound concentration 1000.0 nM
[34] = system: Proto-oncogene tyrosine-protein kinase receptor Ret (Homo sapiens), P07949 [V804L]; conditions: Compound concentration 1000.0 nM
Proto-oncogene tyrosine-protein kinase receptor Ret (Homo sapiens), P07949 [V804L], sequence (P07949 whole entry V804L): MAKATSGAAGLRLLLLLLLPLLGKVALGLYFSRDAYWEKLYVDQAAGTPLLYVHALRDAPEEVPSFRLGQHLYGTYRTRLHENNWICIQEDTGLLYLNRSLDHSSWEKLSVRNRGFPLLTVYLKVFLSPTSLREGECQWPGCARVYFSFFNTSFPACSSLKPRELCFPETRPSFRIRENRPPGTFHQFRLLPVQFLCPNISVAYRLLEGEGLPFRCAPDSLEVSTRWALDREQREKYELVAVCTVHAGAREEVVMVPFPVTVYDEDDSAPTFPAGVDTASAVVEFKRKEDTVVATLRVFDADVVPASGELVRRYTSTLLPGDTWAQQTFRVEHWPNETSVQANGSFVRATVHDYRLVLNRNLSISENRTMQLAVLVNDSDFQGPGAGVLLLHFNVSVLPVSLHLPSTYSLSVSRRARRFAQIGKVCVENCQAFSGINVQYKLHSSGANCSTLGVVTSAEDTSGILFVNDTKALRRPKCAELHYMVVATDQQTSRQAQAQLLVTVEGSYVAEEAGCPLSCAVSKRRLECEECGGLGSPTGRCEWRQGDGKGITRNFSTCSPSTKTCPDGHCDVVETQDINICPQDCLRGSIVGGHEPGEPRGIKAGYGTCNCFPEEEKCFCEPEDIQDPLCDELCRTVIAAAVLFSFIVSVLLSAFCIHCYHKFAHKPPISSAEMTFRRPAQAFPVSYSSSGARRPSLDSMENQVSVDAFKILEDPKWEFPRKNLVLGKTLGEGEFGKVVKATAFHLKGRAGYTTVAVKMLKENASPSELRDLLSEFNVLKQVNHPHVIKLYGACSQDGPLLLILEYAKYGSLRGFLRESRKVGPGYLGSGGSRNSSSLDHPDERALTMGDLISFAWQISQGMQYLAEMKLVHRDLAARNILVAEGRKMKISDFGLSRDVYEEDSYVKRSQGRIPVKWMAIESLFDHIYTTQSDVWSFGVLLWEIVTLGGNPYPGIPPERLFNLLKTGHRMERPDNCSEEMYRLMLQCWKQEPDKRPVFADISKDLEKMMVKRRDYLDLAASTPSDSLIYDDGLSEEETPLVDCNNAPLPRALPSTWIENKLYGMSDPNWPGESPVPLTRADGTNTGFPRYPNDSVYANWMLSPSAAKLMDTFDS

[35] = molecular target: Ribosomal protein S6 kinase alpha-2 (Homo sapiens) (UniProt Q15349); conditions: Compound concentration 1000.0 nM
[36] = molecular target: Serine/threonine-protein kinase SBK1 (Homo sapiens) (UniProt Q52WX2); conditions: Compound concentration 1000.0 nM
Serine/threonine-protein kinase SBK1 (Homo sapiens), sequence (Q52WX2 whole entry): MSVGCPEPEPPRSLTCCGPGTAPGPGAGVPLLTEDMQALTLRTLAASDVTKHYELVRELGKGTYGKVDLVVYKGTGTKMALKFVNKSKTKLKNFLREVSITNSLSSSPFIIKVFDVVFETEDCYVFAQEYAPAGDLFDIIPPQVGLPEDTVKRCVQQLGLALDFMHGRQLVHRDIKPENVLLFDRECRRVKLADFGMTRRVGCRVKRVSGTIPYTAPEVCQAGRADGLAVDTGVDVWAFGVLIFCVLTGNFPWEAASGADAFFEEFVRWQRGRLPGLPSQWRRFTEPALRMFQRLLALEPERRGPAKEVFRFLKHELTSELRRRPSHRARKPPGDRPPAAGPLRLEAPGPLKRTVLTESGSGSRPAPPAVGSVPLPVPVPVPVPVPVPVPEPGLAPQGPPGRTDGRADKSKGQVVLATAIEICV

[37] = molecular target: BDNF/NT-3 growth factors receptor (Homo sapiens) (UniProt Q16620); conditions: Compound concentration 1000.0 nM
[38] = molecular target: Tyrosine-protein kinase TXK (Homo sapiens) (UniProt P42681); conditions: Compound concentration 1000.0 nM
Tyrosine-protein kinase TXK (Homo sapiens), sequence (P42681 whole entry): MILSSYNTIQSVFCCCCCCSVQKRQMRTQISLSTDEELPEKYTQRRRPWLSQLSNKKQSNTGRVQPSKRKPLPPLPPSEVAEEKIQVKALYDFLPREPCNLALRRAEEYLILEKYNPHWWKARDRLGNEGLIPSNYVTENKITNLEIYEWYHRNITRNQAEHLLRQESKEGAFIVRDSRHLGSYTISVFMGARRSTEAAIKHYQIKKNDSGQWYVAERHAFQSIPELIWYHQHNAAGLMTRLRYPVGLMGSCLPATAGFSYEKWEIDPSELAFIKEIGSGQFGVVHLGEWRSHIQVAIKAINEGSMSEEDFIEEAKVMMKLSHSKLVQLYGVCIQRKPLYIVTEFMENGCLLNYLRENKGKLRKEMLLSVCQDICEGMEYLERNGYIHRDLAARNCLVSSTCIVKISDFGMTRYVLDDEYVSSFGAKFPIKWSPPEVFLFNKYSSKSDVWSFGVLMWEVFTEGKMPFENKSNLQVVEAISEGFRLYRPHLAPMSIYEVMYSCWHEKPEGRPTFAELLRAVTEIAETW

[39] = molecular target: Serine/threonine-protein kinase WNK3 (Homo sapiens) (UniProt Q9BYP7); conditions: Compound concentration 1000.0 nM
[40] = molecular target: Serine/threonine-protein kinase 32A (Homo sapiens) (UniProt Q8WU08); conditions: Compound concentration 1000.0 nM
Serine/threonine-protein kinase 32A (Homo sapiens), sequence (Q8WU08 whole entry): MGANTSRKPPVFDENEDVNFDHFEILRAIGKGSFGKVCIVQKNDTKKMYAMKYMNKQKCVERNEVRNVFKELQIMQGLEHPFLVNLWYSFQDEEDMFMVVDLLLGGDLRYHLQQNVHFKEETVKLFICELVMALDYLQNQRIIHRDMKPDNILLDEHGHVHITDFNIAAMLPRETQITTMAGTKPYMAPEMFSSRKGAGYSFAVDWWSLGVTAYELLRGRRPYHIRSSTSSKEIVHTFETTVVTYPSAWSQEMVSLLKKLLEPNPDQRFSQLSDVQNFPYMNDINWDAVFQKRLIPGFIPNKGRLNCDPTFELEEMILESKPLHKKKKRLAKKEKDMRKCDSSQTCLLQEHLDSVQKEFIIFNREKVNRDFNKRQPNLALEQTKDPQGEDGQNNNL

[41] = molecular target: Serine/threonine-protein kinase 32C (Homo sapiens) (UniProt Q86UX6); conditions: Compound concentration 1000.0 nM
[42] = molecular target: Mitogen-activated protein kinase kinase kinase 19 (Homo sapiens) (UniProt Q56UN5); conditions: Compound concentration 1000.0 nM
[43] = molecular target: Tyrosine-protein kinase ZAP-70 (Homo sapiens) (UniProt P43403); conditions: Compound concentration 1000.0 nM
Tyrosine-protein kinase ZAP-70 (Homo sapiens), sequence (P43403 whole entry): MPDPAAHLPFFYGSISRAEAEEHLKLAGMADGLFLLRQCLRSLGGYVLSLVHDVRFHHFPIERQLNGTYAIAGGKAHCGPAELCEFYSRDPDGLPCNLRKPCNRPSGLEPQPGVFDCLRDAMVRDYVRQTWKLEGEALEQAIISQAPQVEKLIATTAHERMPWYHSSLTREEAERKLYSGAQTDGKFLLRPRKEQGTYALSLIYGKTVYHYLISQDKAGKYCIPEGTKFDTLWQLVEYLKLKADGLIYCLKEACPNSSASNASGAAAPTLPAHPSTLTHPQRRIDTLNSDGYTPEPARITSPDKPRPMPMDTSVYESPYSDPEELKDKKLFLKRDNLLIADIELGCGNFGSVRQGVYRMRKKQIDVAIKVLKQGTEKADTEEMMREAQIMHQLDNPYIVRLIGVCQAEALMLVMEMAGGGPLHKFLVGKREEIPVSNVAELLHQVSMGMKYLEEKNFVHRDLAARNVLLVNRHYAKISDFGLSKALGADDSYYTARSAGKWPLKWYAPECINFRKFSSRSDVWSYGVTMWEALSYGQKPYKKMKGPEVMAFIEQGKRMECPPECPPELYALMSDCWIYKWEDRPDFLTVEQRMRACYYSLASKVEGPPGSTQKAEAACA

[44] = molecular target: Alpha-2B adrenergic receptor (Homo sapiens) (UniProt P18089); conditions: Compound concentration 10.0 uM

O=C(Nc1ccc(Oc2ccc(F)cc2)cc1)N1CCc2ncccc2[C@H]1c1ccc(F)cc1 [BAY-897]
inactive: residual activity [1] 70% | residual activity [2] 88% | residual activity [3] 96% | residual activity [4] 92% | residual activity [5] 96% | residual activity [6] 51% | residual activity [7] 92% | residual activity [8] 98% | residual activity [9] 96% | residual activity [10] 100% | residual activity [11] 86% | residual activity [12] 94% | residual activity [13] 95% | residual activity [14] 85% | residual activity [15] 71% | residual activity [16] 100% | residual activity [17] 99% | residual activity [18] 96% | residual activity [19] 88% | residual activity [20] 100% | residual activity [21] 100% | residual activity [22] 100% | residual activity [23] 93% | residual activity [24] 82% | residual activity [25] 52% | residual activity [26] 95% | residual activity [27] 96% | residual activity [28] 96% | residual activity [29] 93% | residual activity [30] 95% | residual activity [31] 80% | residual activity [32] 100% | residual activity [33] 100% | residual activity [34] 95% | residual activity [35] 100% | residual activity [36] 89% | residual activity [37] 84% | residual activity [38] 100% | residual activity [39] 94% | residual activity [40] 100% | residual activity [41] 75% | residual activity [42] 88% | residual activity [43] 91% | inhibition [44] 49.6%

O=C(Nc1cnc(Oc2ccc(F)cc2)nc1)N1CCc2ncccc2[C@@H]1c1ccc(F)cc1 [BAY-899]
inactive: residual activity [1] 81% | residual activity [2] 100% | residual activity [3] 97% | residual activity [4] 100% | residual activity [5] 88% | residual activity [6] 79% | residual activity [7] 100% | residual activity [8] 92% | residual activity [9] 100% | residual activity [10] 100% | residual activity [11] 97% | residual activity [12] 100% | residual activity [13] 70% | residual activity [14] 66% | residual activity [15] 70% | residual activity [16] 100% | residual activity [17] 100% | residual activity [18] 90% | residual activity [19] 85% | residual activity [20] 94% | residual activity [21] 100% | residual activity [22] 93% | residual activity [23] 77% | residual activity [24] 71% | residual activity [25] 59% | residual activity [26] 93% | residual activity [27] 95% | residual activity [28] 95% | residual activity [29] 100% | residual activity [30] 82% | residual activity [31] 78% | residual activity [32] 87% | residual activity [33] 90% | residual activity [34] 86% | residual activity [35] 97% | residual activity [36] 100% | residual activity [37] 100% | residual activity [38] 87% | residual activity [39] 93% | residual activity [40] 100% | residual activity [41] 96% | residual activity [42] 81% | residual activity [43] 93% | inhibition [44] 9.66%
